Laboratory results reported in patent EP4778929A1, “NOVEL TYPE I TOPOISOMERASE INHIBITOR, AND PREPARATION METHOD THEREFOR AND USE THEREOF” (priority 2023, dated 2025).
Where two headings read alike, the source gives them in different places.

What was measured:
HCT116 cells = test: Inhibition of cell proliferation by CTG (CellTiter-Glo) luminescence assay; type: cell-based; conditions: Homo sapiens, read-out: HCT116, IC50
How it was run: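 Nine-point 1:3 dilutions applied to HCT116 cells (2 000/well, McCoy's 5a + 10 % FBS) for 72 h at 37 °C, final DMSO 0.25 %. Viability read by CellTiter-Glo luminescence; % inhibition versus DMSO controls fitted to four-parameter logistic for IC50.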

topoisomerase I (Topo I) = molecular target: T1, topoisomerase I (Topo I) (Homo sapiens, UniProt P11387); test: Topo I enzyme-inhibitory activity by agarose-gel electrophoresis (plasmid relaxation); type: biochemical
T1 sequence (P11387 1-765): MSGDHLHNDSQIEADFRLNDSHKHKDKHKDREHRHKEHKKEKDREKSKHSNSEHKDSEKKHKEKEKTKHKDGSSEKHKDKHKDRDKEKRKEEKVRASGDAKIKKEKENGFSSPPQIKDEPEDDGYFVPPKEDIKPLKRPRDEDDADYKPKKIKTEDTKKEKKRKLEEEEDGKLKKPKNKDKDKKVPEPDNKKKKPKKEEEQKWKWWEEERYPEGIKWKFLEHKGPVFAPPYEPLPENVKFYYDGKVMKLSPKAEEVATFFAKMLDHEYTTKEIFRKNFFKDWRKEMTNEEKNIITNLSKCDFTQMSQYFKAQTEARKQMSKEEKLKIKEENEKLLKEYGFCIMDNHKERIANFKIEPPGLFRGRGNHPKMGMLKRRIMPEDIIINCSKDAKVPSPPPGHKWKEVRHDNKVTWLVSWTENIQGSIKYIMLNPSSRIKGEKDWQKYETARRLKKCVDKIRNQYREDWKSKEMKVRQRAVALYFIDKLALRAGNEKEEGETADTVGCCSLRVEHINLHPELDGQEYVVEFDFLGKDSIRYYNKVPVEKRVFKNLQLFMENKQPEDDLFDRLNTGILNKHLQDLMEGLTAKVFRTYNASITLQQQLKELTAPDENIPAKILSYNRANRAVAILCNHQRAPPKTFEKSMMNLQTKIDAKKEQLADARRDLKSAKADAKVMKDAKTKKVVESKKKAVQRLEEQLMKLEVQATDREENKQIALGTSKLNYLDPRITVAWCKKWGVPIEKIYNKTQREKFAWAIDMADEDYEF
How it was run: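 Supercoiled pNO1 plasmid (0.5 µg) was relaxed by Topo I (0.75 U) in 20 mM Tris-HCl pH 7.5, 200 mM NaCl, 0.25 mM EDTA, 5 % glycerol, 5 % DMSO final, for 30 min at 37 °C. Supercoiled band intensity on agarose gel was normalized to no-enzyme and vehicle controls. IC50 from a four-parameter logistic fit.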

[1] = system: Human colon cancer HCT116 cells; test: Subcutaneous xenograft model of human colon cancer HCT-116 cells; type: in vivo, BALB/c nude mice; conditions: day 21 post-treatment, 5 mg/kg, IV, BIW×3W; for tumor volume: vehicle control 1146 mm^3
Experimental: Test Example 4. Pharmacodynamic Evaluation of Compound 2, Compound 250, and Compound 253 in a Subcutaneous Xenograft Model of Human Colon Cancer HCT-116 Cells in BALB/c Female Nude Mice
Human colon cancer HCT116 cells were cultured in vitro as monolayers in McCoys 5a medium supplemented with 10% fetal bovine serum and 1% penicillin/streptomycin/amphotericin B at 37 °C in a 5% CO2 incubator. Cells were routinely passaged twice a week using trypsin-EDTA digestion. When cells reached 80%-90% confluence and the required cell number was achieved, cells were harvested. HCT116 cells (0.1 mL, 5×10^6 cells) were subcutaneously inoculated into the right dorsal region near the upper forelimb of each mouse (BALB/c nude mice, female, 6-8 weeks old). Treatment was initiated when the average tumor volume reached approximately 158 mm^3. Tumor volume was measured twice weekly. At the end of the experiment, the tumor growth inhibition rate (TGI) was calculated as: TGI (%) = [1 - (average tumor volume at the end of treatment in a particular group - average tumor volume at the start of treatment in that group) / (average tumor volume at the end of treatment in the vehicle control group - average tumor volume at the start of treatment in the vehicle control group)] × 100%.
(§1) Experimental Groups and Dosing Regimen:
• 1, Vehicle control group • 2, Compound 2, 5 mg/kg, IV, BIW×3W • 3, Compound 250, 5 mg/kg, IV, BIW×3W • 4, Compound 253, 5 mg/kg, IV, BIW×3W

in vivo = conditions: male, CD-1, mouse
Experimental: Test Example 3. Pharmacokinetic Study for Determining Compound Concentrations in Mice by LC-MS/MS
Principle: LC-MS/MS is used to quantify the plasma concentrations of the test article at successive time points, generating an in-vivo pharmacokinetic profile.
Procedure: The test compound was dissolved in DMSO to prepare a 10 mg/mL stock solution. This stock was further diluted to 1 mg/mL with a vehicle consisting of 10 % DMSO + 10 % Solutol HS-15 + 80 % saline. Male CD-1 mice (JH Laboratory Animal Co., LTD) were employed; six animals were assigned per compound group. […] Serial blood samples (~50 µL whole blood, K2EDTA anticoagulant) were collected at 0.083, 0.25, 0.5, 1, 2, 4, 8 and 24 h (three mice per time point in a crossover design). Blood was centrifuged at 6 000 g for 5 min at 4 °C; plasma was harvested and stored at -70 °C until analysis. Plasma drug concentrations were determined by LC-MS/MS.
Calibration Curve and QC Preparation: Working solutions were prepared by dilution with MeOH:H2O (1:1). For each calibration or QC level, 3 µL of working solution was spiked into 57 µL of blank mouse plasma.
Sample Processing: To 30 µL of plasma was added 200 µL of methanol containing the internal standard (propranolol, 40 ng mL^-1). After vortex-mixing for 1 min, the mixture was centrifuged at 12 000 rpm for 10 min. A 100 µL aliquot of the supernatant was transferred to a clean plate for injection.
Pharmacokinetic Analysis: Concentration-time data were analyzed with WinNonlin 8.2 using a non-compartmental approach to derive PK parameters including Cmax, Tmax, AUC and terminal elimination half-life (t1/2). AUC was calculated by the linear-up/log-down trapezoidal method. Table 3. Pk parameters of compounds

[2] = system: Human colon cancer CR00090 cells; test: CR00090 human colon cancer model (subcutaneous); type: in vivo, NPSG mice; conditions: day 28 post-treatment, 5 mg/kg, IV, BIW×4W; for tumor volume: vehicle control 1093 mm^3
Experimental: Test Example 5: Pharmacodynamic Evaluation of Compound 117, Compound 250, and Compound 253 in the CR00090 Human Colon Cancer Model
Human colon cancer CR00090 cells were thawed, counted, and mixed with Matrigel at a 1:1 ratio. Then, 0.1 mL (5×10^5 cells) of CR00090 cells were subcutaneously inoculated into the right dorsal region near the upper forelimb of each mouse (NPSG mice, female, 6-8 weeks old). Treatment was initiated when the average tumor volume reached approximately 84 mm^3. Tumor volume was measured twice weekly. At the end of the experiment, the tumor growth inhibition rate (TGI) was calculated as: TGI (%) = [1 - (average tumor volume at the end of treatment in a particular group - average tumor volume at the start of treatment in that group) / (average tumor volume at the end of treatment in the vehicle control group - average tumor volume at the start of treatment in the vehicle control group)] × 100%.
as §1
• 1, Vehicle control group • 2, Compound 117, 5 mg/kg, IV, BIW×4W • 3, Compound 250, 5 mg/kg, IV, BIW×4W • 4, Compound 253, 5 mg/kg, IV, BIW×4W

[3] = read-out: inhibition of topoisomerase I (Topo I) enzymatic activity, IC50; 0.75 U Topo I, pNO1 plasmid, 37 °C, 30 min; compounds listed by group (Group A / Group B)
[4] = HCT-116, 72 h incubation, CellTiter-Glo
[5] = 0.75 U Topo I, pNO1 plasmid, 37 °C, 30 min; compounds listed by group (Group A / Group B); read-out: inhibition of topoisomerase I (Topo I) enzymatic activity, IC50

Structure (SMILES)	IC50 (HCT116 cells; HCT-116, 72 h) [nM]	IC50 (topoisomerase I (Topo I); [3]) [nM]	IC50 (HCT116 cells; [4]) [nM]	further results
CC[C@@]1(O)C(=O)OCc2c1cc1n(c2=O)Cc2c-1c(=O)c1cc(F)c(C)cc1n2CCN(C1CC1)C1CC(F)(F)C1 [Example 165]	< 20	200 to 500	–	–
CC[C@@]1(O)C(=O)OCc2c1cc1n(c2=O)Cc2c-1c(=O)c1cc(F)c(C)cc1n2CCN(C)C1CCCC1 [Example 166]	< 20	200 to 500	–	–
CC[C@@]1(O)C(=O)OCc2c1cc1n(c2=O)Cc2c-1c(=O)c1cc(F)c(C)cc1n2CCN(C1CCCC1)C1CC1 [Example 167]	< 20	200 to 500	–	–
CC[C@@]1(O)C(=O)OCc2c1cc1n(c2=O)Cc2c-1c(=O)c1cc(F)cc(C)c1n2CCNC1CCCC1 [Example 168]	< 20	200 to 500	–	–
CC[C@@]1(O)C(=O)OCc2c1cc1n(c2=O)Cc2c-1c(=O)c1cc(F)cc(C)c1n2CCNC1CC1 [Example 169]	< 20	200 to 500	–	–
CC[C@@]1(O)C(=O)OCc2c1cc1n(c2=O)Cc2c-1c(=O)c1cc(F)cc(C)c1n2CCN(C1CCCC1)C1CC1 [Example 171]	< 20	200 to 500	–	–
CC[C@@]1(O)C(=O)OCc2c1cc1n(c2=O)Cc2c-1c(=O)c1cc(F)cc(C)c1n2CCN(C)C1CCCC1 [Example 172]	< 20	200 to 500	–	–
CC[C@@]1(O)C(=O)OCc2c1cc1n(c2=O)Cc2c-1c(=O)c1cc(F)ccc1n2CCN1CC2(CC2)C1 [Example 182, (S)-11-(2-(5-azaspiro[2.3]hexan-5-yl)ethyl)-4-ethyl-8-fluoro-4-hydroxy-1,12-dihydro-14H-pyrano[3',4':6,7]indolizino[2,1-b]quinoline-3,6,14(4H,11H)-trione]	–	–	< 20	IC50 (topoisomerase I (Topo I); [5]): 200 to 500 nM
CC[C@@]1(O)C(=O)OCc2c1cc1n(c2=O)Cc2c-1c(=O)c1cc(F)ccc1n2CCN1CCCC1(C)C [Example 184]	< 20	< 200	–	–
CC[C@@]1(O)C(=O)OCc2c1cc1n(c2=O)Cc2c-1c(=O)c1cc(F)ccc1n2CCN1CCC(C)(C)CC1 [Example 185]	< 20	200 to 500	–	–
CC[C@@]1(O)C(=O)OCc2c1cc1n(c2=O)Cc2c-1c(=O)c1cc(F)ccc1n2CCN1CC(F)(F)C1 [Example 186]	–	–	< 20	IC50 (topoisomerase I (Topo I); [5]): 200 to 500 nM
CC[C@@]1(O)C(=O)OCc2c1cc1n(c2=O)Cc2c-1c(=O)c1cc(F)ccc1n2CCN1C2CCC1CC(F)(F)C2 [Example 187]	< 20	200 to 500	–	–
CC[C@@]1(O)C(=O)OCc2c1cc1n(c2=O)Cc2c-1c(=O)c1cc(F)ccc1n2CCN1CCC(F)(F)CC1 [Example 190]	< 20	< 200	–	–
CC[C@@]1(O)C(=O)OCc2c1cc1n(c2=O)Cc2c-1c(=O)c1cc(F)c(CN(C)C3CC3)cc1n2C1CC1 [Example 225]	< 20	200 to 500	–	–
CC[C@@]1(O)C(=O)OCc2c1cc1n(c2=O)Cc2c-1c(=O)c1cc(F)c(CNC3CC3)cc1n2C1CCCC1 [Example 227]	< 20	200 to 500	–	–
CC[C@@]1(O)C(=O)OCc2c1cc1n(c2=O)Cc2c-1c(=O)c1cc(F)c(CN(C)C3CC3)cc1n2C1CCCC1 [Example 228]	–	–	< 20	IC50 (topoisomerase I (Topo I); [5]): 200 to 500 nM
CC[C@@]1(O)C(=O)OCc2c1cc1n(c2=O)Cc2c-1c(=O)c1cc(F)ccc1n2[C@@H]1CCN(C)C1 [Example 250, (S)-4-ethyl-8-fluoro-4-hydroxy-11-((R)-1-methylpyrrolidin-3-yl)-1,12-dihydro-14H-pyrano[3',4':6,7]indolizino[2,1-b] quinoline-3,6,14(4H,11H)-trione]	–	–	< 20	TGI [1]: 83.1%; tumor volume [1]: 326 mm^3; bioavailability (in vivo): 35.9%; AUC(0-t) (in vivo; iv, 2 mg/kg): 543 ng·h/mL; Cmax (in vivo; iv, 2 mg/kg): 1210 ng/mL; clearance (in vivo; iv, 2 mg/kg): 62.9 mL/min/kg; half-life (in vivo; iv, 2 mg/kg): 17.9 min; AUC(0-t) (in vivo; po, 20 mg/kg): 1930 ng·h/mL; Cmax (in vivo; po, 20 mg/kg): 1120 ng/mL; Tmax (in vivo; po, 20 mg/kg): 30 min; half-life (in vivo; po, 20 mg/kg): 231 min; TGI [2]: 80.0%; tumor volume [2]: 286 mm^3
CC[C@@]1(O)C(=O)OCc2c1cc1n(c2=O)Cc2c-1c(=O)c1cc(F)ccc1n2[C@@H]1CCN(C2CCC2)C1 [Example 253, (S)-4-ethyl-8-fluoro-4-hydroxy-11-((R)-1-cyclobutylpyrrolidin-3-yl)-1,12-dihydro-14H-pyrano[3',4':6,7]indolizino[2,1-b]quinoline-3,6,14(4H,11H)-trione]	–	–	< 20	TGI [1]: 80.6%; tumor volume [1]: 351 mm^3; TGI [2]: 76.3%; tumor volume [2]: 323 mm^3
CC[C@@]1(O)C(=O)OCc2c1cc1n(c2=O)Cc2c-1c(=O)c1cc(F)c(N)cc1n2-c1ccc2c(c1)OC(F)(F)O2 [Example 354]	< 20	< 200	–	–
CC[C@@]1(O)C(=O)OCc2c1cc1n(c2=O)Cc2c-1c(=O)c1cc(F)c(N)cc1n2-c1cc(OC)cc(C(C)C)c1 [Example 355]	–	–	< 20	IC50 (topoisomerase I (Topo I); [5]): 200 to 500 nM
